# Source: patent US20060051868A1, “Methods for increasing conifer somatic embryo initiation, capture, and multiplication” (priority 2001, published 2006)
# How the values were obtained:
# Assay type in all cases: cell-based
# [1] = system: Douglas-fir zygotic embryos; test: Initiation frequency of embryogenic cultures from Douglas-fir zygotic embryos; conditions: 1.0 ppm in media #121 (Media 1323); 8-9 weeks, dark; control 16.4
# Description: Four Douglas-fir cone collections with zygotic embryos at stages 2-4 were chosen. Cones were supplied by The Timber Co. from Cottage Grove, Oregon. Seeds were removed from their cones, soaked in running water for 10 min., and agitated in 10% liquinox containing 1.1 ml/l Tween 20 for an additional 10 min. The seeds were then rinsed with running tap water for 30 min. Seeds were transferred into a laminar flow hood where they were sterilized by agitating in 20% H2O2 for 10 min. Seeds were rinsed in sterilized water for 5 cycles of 5 to 10 min. each. The sterile seeds were placed into a sterile petri dish and dissected. The dissection was performed by splitting the ovule, gently removing the dominant embryo while leaving the suspensor intact, and placing both the embryo and the connected female gametophyte on the test medium. Test medium #1323 is the same as control media #121 but contains 1.0 ppm paclobutrazol. 2 ml of the appropriate medium was poured into multi-well plates sufficient for 10 replications per cone collection. The plates were incubated in the dark for 8-9 weeks at 24-26° C. […] Four Douglas-fir cone collections with zygotic embryos at stages 2-4 were chosen. […] The initiation frequency for the four cone collections with the addition of salts, paclobutrazol, and brassinolide enclosed in a nylon bag was determined to be 38.6%. […]
# [2] = system: slash pine megagametophyte; test: Initiation frequency of embryogenic cultures from slash pine megagametophytes; conditions: 1.0 ppm paclobutrazol in media #1369B (Media 1374); 8 weeks, dark; control 19.3
# Description: A further representative example in conifer to show the effects of gibberellin inhibitors in a buffered media is slash pine. Three cone collections with embryos at stages 2-4 were chosen. Removed seeds were soaked in running water for […]. and then agitated in 10% liquinox containing 1.1 ml/l Tween 20 for an additional 10 min. Seeds were sterilized in a laminar flood by agitating in 20% H2O2 for 10 min. Seeds were rinsed in sterilized water for 5 cycles of 5 to 10 min. each. The sterile seeds were placed into a sterile petri dish and dissected. The dissection was performed by splitting the seed coat, removing the integuments and nucellus, and placing the megagametophyte on the test medium. Test media #1374 contains the components of media #1369B and 1.0 ppm paclobutrazol. 2 ml of the appropriate media was poured into multi-well plates sufficient for 10 replications for each genotype. The plates were then incubated in the dark for 8 weeks at 24-26° C.
# [3] = system: Norway Spruce embryo and female gametophyte; test: Initiation frequency of embryogenic cultures from Norway Spruce seed embryos; conditions: base media #56; MES 0.25 gm/l (Media 1362); vitamins 0.05 ppm biotin + 0.5 ppm folic acid (Media 1363); nine weeks, light; control 38.5
# Description: Mature Norway Spruce seeds were soaked in running water for 1 hour at room temperature and then stored in water for 24 hours in a refrigerator at 4° C. The seeds were sterilized by agitation in 10% liquinox containing 1.1 ml/l Tween 20 for 10 minutes followed by a 30 minute rinse with running tap water. In a sterile laminar flow hood, the rinsed seeds were agitated in 20% H2O2 for 10 min., then again rinsed with sterile deionized water for 5 cycles of 5 to 10 min. each. The sterile Norway Spruce seeds were placed into petri dishes onto sterile moistened filter paper for dissection. Seeds were opened and the female gametophyte removed. The female gametophyte was placed on its side and further opened. The embryo was removed from the gametophyte and placed onto a test medium next to the female gametophyte. Petri dishes containing the embryo and gametophyte were covered and wrapped with Parafilm® and incubated in light at 23-24° C. for nine weeks. The control-medium used for Norway Spruce was media #56. Refer to Table 21 for a detailed listing of media components. The three test media contained combinations of buffering reagent MES and/or vitamins. […] Initiation frequency was determined to be 38.5% for the control media, while the frequency on the control medium with the addition of 0.33 ppm paclobutrazol averaged roughly 48.5%. […]
Compound,Initiation Frequency (%) [1],Initiation Frequency (%) [2],Initiation Frequency (%) [3]
CC(C)(C)[C@@H](O)[C@@H](Cc1ccc(Cl)cc1)n1cncn1 (racemic) [paclobutrazol],24.4%,28.5%,
"O=S(=O)(O)CCN1CCOCC1 [MES, 2-(N-morpholino)-ethanesulfonic acid]",,,40.2%
